Test results as given in patent US4315018A, “Specific parasiticidal use of 2-benzamido-5-nitro-thiazole derivatives” (priority 1978, dated 1982).
Entries after “also recorded” stand apart in the source; their conditions may differ.

Key:
whipworms = assay: Treatment of nematodes in dogs: whipworms; assay type: in vivo; settings: 100 mg/kg single dose, tablets containing 0.5 g, 3 dogs, necropsy 4 days after treatment
Source text: (§1) The general testing procedure was that of Example 1. […] 100% efficacy against whipworms and 65% efficacy against hookworms were found upon necropsy 4 days after treatment using a single dose treatment.

[1] = tested on: Gastro-Intestinal Nematodes; assay: Gastro-intestinal nematodes in lambs, worm counts; assay type: in vivo
Experimental: (§2) Twenty lambs spontaneously infested by nematodes and cestodes were removed from a flock near Limoges (Haute-Vienne), France. They were housed in sheepfold --concentrate food, 1 kg per day per lamb, water and hay, ad libitum, were provided.
To confirm the infestation, faeces were taken from the rectum 48 hours prior to treatment and the number of eggs counted.
(§3) The animals were assigned to treatment groups as indicated below:
(§4) Seven lambs (Group 1, black) were given a single 100 mg/kg of body weight dose of the test material dissolved in a mixture of water and gum syrup (0.5 ml/kg of body weight) orally administered with a syringe.
(§5) Seven lambs (Group 2, red) were given a single 50 mg/kg of body weight dose of the test material dissolved in a mixture of water and gum syrup (0.5 ml/kg of body weight) orally administered with a syringe.
(§6) Six lambs (Group 3, blue) were given 0.5 ml/kg of body weight of a mixture of water and gum syrup orally administered with a syringe.
(§7) 48 hours after treatment, necroscopies were performed.
(§8) Scolices and gastro intestinal worm counts were carried out.

Echinococus granulosus = assay: Treatment of Echinococus granulosus in dogs (experimental infection); assay type: in vivo; settings: 200 mg/kg, 0.5 gram tablets, treated 4 or 6 weeks after infection, necropsy 4 days after treatment
Experimental: Again, the general testing procedure was that of Example 1. This time 16 dogs to be treated were experimentally infected and divided into two groups along with 4 infected control dogs in each group. The 8 dogs of Group 1 were treated 4 weeks after infection, and the 8 dogs of Group 2 were treated 6 weeks after infection, each at a dose of 200 mg/kg, using the 0.5 gram active ingredient tablets. 100% efficacy of the single dose treatment was found upon necropsy 4 days after treatment.

[2] = Necropsy observations in treated lambs; assay type: in vivo; settings: 48 hours after treatment
Experimental: as §4, §5, §7

[3] = Toxicity study in cats, single doses; assay type: in vivo
Source text: (§9) Additional toxicity studies have been carried out in cats and dogs, which can be summarized as follows.
The lethal dose of the test material in cats is greater than 10 g/kg.

[4] = Toxicity study in dogs, single doses; assay type: in vivo
Source text: as §9
The lethal dose of the test material in dogs is greater than 10 g/kg.

Dypilidium caninum = assay: Treatment of Dypilidium caninum in dogs (natural infection); assay type: in vivo; settings: 100 mg/kg, tablets containing 0.5 gram, necropsy 21 days after treatment
Source text: In general, the testing procedure was substantially the same as in Example 1 except necropsy 21 days after treatment. The treatment was 100% effective.

hookworms = assay: Treatment of nematodes in dogs: hookworms; assay type: in vivo
Source text: as §1

Moniezia spp. = assay: Treatment of Moniezia expansa in lambs (natural infestation); assay type: in vivo
Experimental: as §2, §3, §4, §5, §6, §7, §8

Taenia pisiformis = assay: Treatment of Taenia pisiformis in dogs (experimental infection, single oral dose); assay type: in vivo, dogs (beagles)
Experimental: Fifteen beagles (8 male and 7 female), ranging in age from 8 to 30 months, were individually housed in stainless-steel cages and fed with commercial dog food. Water was provided ad libitum. After 2 weeks acclimatization, each dog was exposed to infection by administering orally 14-20 cysts containing Taenia pisiformis strobilocerci obtained 24 hours before from wild rabbits. Vitality of the cysts was verified by evagination in bile of the dog.
Seven dogs (Group 1) were given the drug 6 weeks after infection with Taenia pisiformis, and the other 8 dogs (Group 2) were given the drug 8 weeks after infection.
(§10) Food and water intake, faecel consistency, vomiting, general appearance and behavior were recorded hourly during the day of treatment and twice daily thereafter.
The tapeworms that were found were then removed, counted and examined for scolices.
The emission time of the faeces for each dog was recorded during the day, when possible.
Nineteen days after treatment for Group 1, and 4 days after treatment for Group 2, the dogs were killed and the small intestines were examined in order to reveal the presence of Taenia spp. This 19-day waiting period for Group 1 allowed time for any viable scolices to redevelop, thus making them more easily visible at necropsy.
The intestines and intestinal contents from the pyloric portion of the stomach through the rectum were thoroughly examined for parasites.

[5] = Side effects of treatment in Taenia pisiformis-infected dogs; assay type: in vivo, dogs (beagles); settings: 75 mg/kg, 15 dogs
Experimental: as §10

[6] = single dose 100 mg/kg, 7 naturally infested lambs

With `CC(=O)Oc1ccccc1C(=O)Nc1ncc([N+](=O)[O-])s1` [PH 5776, 2-(2'-acetoxy)-benzamido-5-nitro-thiazole] the Efficacy against whipworms (whipworms) was 100%, the “After Treatment At Necroscopies: Number Of Worms, Large Intestine” value ([1]; Group 1, 100 mg/kg) was 0 and the “Effect on round worms / gastro-intestinal nematodes (in words)” value ([1]; lambs, 48 hours after treatment, 50 and 100 mg/kg) was “no toxic effect on any of the present round worms; also recorded: does not reveal any efficacy; also recorded: no activity”. The “Efficacy of the single dose treatment” value (Echinococus granulosus) was 100%, the “Changes in the internal organs and coloration of the tissues” value ([2]; 100 or 50 mg/kg) was “No changes in the internal organs and no coloration of the tissues were observed” and the “Coloration of small intestine wall tissues” value ([2]; treated groups (100 or 50 mg/kg)) was “slightly colored yellow”. For the same molecule, the Lethal dose [3] was “greater than 10 g/kg”, the Necropsy findings [3] was “slight yellow discoloration of the renal cortex” and the “Signs of intoxication (central nervous system)” value ([3]; doses of 5 and 10 g/kg) was “a suggestion of central nervous system depression”. The Signs of intoxication ([3]; single doses of 1 g/kg) was “Minimal signs (slight diarrhea) of intoxication”, the Route of excretion ([3]; suggested from necropsy findings) was “urine as a route of excretion” and the Lethal dose [4] was “greater than 10 g/kg”. For the same molecule, the Signs of intoxication ([4]; single doses of 1, 5 or 10 g/kg) was “Minimal signs of intoxication related to gastro-intestinal distress”, the Effectiveness of treatment (Dypilidium caninum) was 100% and the Efficacy against hookworms (hookworms; 100 mg/kg single dose, tablets containing 0.5 g, 3 dogs, necropsy 4 days after treatment) was 65%. For the same molecule, the Efficacy against hookworms (hookworms; 3 repeated doses of 100 mg/kg at an interval of 7 days) was 93%, the “Efficacy against Moniezia spp. (in words)” value (Moniezia spp.; 50 mg/kg) was “the efficacy is decreasing” and the “Number of lambs negative after treatment” value (Moniezia spp.; 50 mg/kg) was 3 lambs. The “Number of lambs still infested with the cestoda” value (Moniezia spp.; Group 2 (red), 50 mg/kg, 48 hours after treatment) was 3 lambs, the “Activity against Moniezia spp.” value (Moniezia spp.; [6]) was roughly 100% and the “Activity against Moniezia spp. (in words)” value (Moniezia spp.; [6]) was “very active”. For the same molecule, the “Effectiveness against Taenia pisiformis” value (Taenia pisiformis; 75 mg of body weight) was “effective”, the “Tapeworm material in faeces after the 14th hour” value (Taenia pisiformis; 75 mg/kg) was “not found” and the “Tapeworms at necropsy (in words)” value (Taenia pisiformis; 75 mg/kg, 15 dogs, day 19 (Group 1) and day 4 (Group 2)) was “tapeworms were not found in any of the 15 dogs; also recorded: None of the dogs on study were positive for tapeworms”. The “Number of dogs showing tapeworm material in the faeces” value (from here on “Number … in the faeces”) (Taenia pisiformis; Group 1 (7 dogs), 75 mg/kg) was 5 dogs, the “Tapeworm Material In Faeces (8th-14th Hour)” value (Taenia pisiformis; Group 1, 75 mg/kg, 6 weeks after infection) was “yes and no” and the “Number … in the faeces” value (Taenia pisiformis; Group 2 (8 dogs), 75 mg/kg) was 6 dogs. The “Tapeworm Material In Faeces (8th-14th Hour)” value (Taenia pisiformis; Group 2, 75 mg/kg, 8 weeks after infection) was “yes and no”, the “Number … in the faeces” value (Taenia pisiformis; Groups 1 and 2, out of 15 dogs, 75 mg/kg) was 11 dogs and the “Undesirable side effects of the treatment” value [5] was “not found in any of the 15 dogs”.
